Measurements published in ChEMBL document CHEMBL1201862, “PubChem BioAssay data set” (2004).
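Briefly, cells in 96-well plates were exposed to five compound concentrations for 48 h, and endpoints were estimated by linear interpolation. GI50 marks 50% less growth.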 Calls of active or inactive are those of the source. Cut-off read from the data, not from the text of the source: active = GI50 up to about 1.1 µM and inactive = higher.

What was measured:
Assay in all cases: growth of human tumour cells (NCI), 48 h
[1] = test system: SF-539
[2] = test system: U-251
[3] = test system: NCI-H226
[4] = test system: UACC-62
[5] = test system: LXFL 529
[6] = test system: DMS-114
[7] = test system: OVCAR-5
[8] = test system: OVCAR-4
[9] = test system: SF-268
[10] = test system: SK-MEL-2
[11] = test system: K562
[12] = test system: A549
[13] = test system: NCI-H460
[14] = test system: M19-MEL
[15] = test system: ACHN
[16] = test system: HT-29
[17] = test system: HCT-15
[18] = test system: SK-OV-3
[19] = test system: UO-31
[20] = test system: RXF 393
[21] = test system: SNB-78
[22] = test system: SW-620
[23] = test system: A498
[24] = test system: DMS-273
[25] = test system: KM-20L2
[26] = test system: 786-0
[27] = test system: HCT-116
[28] = test system: UACC-257
[29] = test system: SNB-75
[30] = test system: NCI-H23
[31] = test system: HOP-62
[32] = test system: RPMI-8226
[33] = test system: CAKI-1
[34] = test system: HOP-92
[35] = test system: LOX IMVI
[36] = test system: OVCAR-8
[37] = test system: SK-MEL-28
[38] = test system: SF-295
[39] = test system: SNB-19
[40] = test system: Malme-3M
[41] = test system: TK-10
[42] = test system: XF498
[43] = test system: COLO 205
[44] = test system: OVCAR-3
[45] = test system: HOP-18
[46] = test system: EKVX
[47] = test system: MOLT-4
[48] = test system: KM12
[49] = test system: IGROV-1
[50] = test system: CCRF-CEM
[51] = test system: NCI-H522
[52] = test system: SK-MEL-5
[53] = test system: SN12C
[54] = test system: M14
[55] = test system: MCF7
[56] = test system: NCI/ADR-RES
[57] = test system: HL-60
[58] = test system: DLD-1
[59] = test system: HCC 2998

Measured: GI50

CC(=O)O[C@H]1CCC2[C@@H]3CCC4=C(O)c5nocc5C[C@]4(C)C3CC[C@@]21C (stereo partly drawn)
inactive: [1] > 100 µM | [2] > 100 µM | [3] > 100 µM | [4] > 100 µM | [5] > 100 µM | [6] > 100 µM | [7] > 100 µM | [8] > 100 µM | [9] > 100 µM | [10] > 100 µM | [11] > 100 µM | [12] > 100 µM | [13] > 100 µM | [14] > 100 µM | [15] > 100 µM | [16] > 100 µM | [18] > 100 µM | [19] > 100 µM | [20] > 100 µM | [21] > 100 µM | [22] > 100 µM | [23] > 100 µM | [24] > 100 µM | [25] > 100 µM | [26] > 100 µM | [27] > 100 µM | [28] > 100 µM | [29] > 100 µM | [30] > 100 µM | [31] > 100 µM | [32] > 100 µM | [33] > 100 µM | [34] > 100 µM | [35] > 100 µM | [36] > 100 µM | [37] > 100 µM | [38] > 100 µM | [39] > 100 µM | [40] > 100 µM | [41] > 100 µM | [42] > 100 µM | [43] > 100 µM | [44] > 100 µM | [45] > 100 µM | [46] > 100 µM | [47] > 100 µM | [48] > 100 µM | [49] > 100 µM | [50] > 100 µM | [51] > 100 µM | [52] > 100 µM | [53] > 100 µM | [54] > 100 µM
> 100 µM: [17]

CC(=O)/C=C/c1c[nH]c(=O)[nH]c1=O
inactive: [1] 214 µM | [2] 151 µM | [3] 204 µM | [4] 236 µM | [6] 242 µM | [55] 157 µM | [7] 303 µM | [8] 508 µM | [9] 168 µM | [10] 197 µM | [11] 229 µM | [12] 305 µM | [13] 186 µM | [14] 390 µM | [56] 151 µM | [16] 420 µM | [57] 97.9 µM | [18] 166 µM | [19] 130 µM | [20] 126 µM | [21] 159 µM | [22] 223 µM | [23] 214 µM | [24] 89.1 µM | [25] 213 µM | [27] 128 µM | [28] 265 µM | [29] 217 µM | [30] 257 µM | [31] 303 µM | [32] 129 µM | [33] 74.3 µM | [58] 179 µM | [34] 8.13 µM | [35] 97.5 µM | [36] 241 µM | [37] 190 µM | [38] 304 µM | [39] 295 µM | [40] 243 µM | [42] 38.4 µM | [43] 154 µM | [44] 180 µM | [45] 155 µM | [46] 239 µM | [47] 179 µM | [48] 187 µM | [49] 151 µM | [50] 92 µM | [59] 236 µM | [51] 94.4 µM | [52] 271 µM | [53] 142 µM
210 µM: [17]
